Non-standard residues stand in square brackets, D forms with d. Residues, ends and D or L forms follow the SMILES beside them.

Consider five molecules from article PMC7733796 (Proceedings of the National Academy of Sciences of the …, 2020).

Series [1] deals with T1, CXCR4 (Homo sapiens, UniProt P61073). Conditions: hNSCs preincubated with 10 µM, osmotic pump 24-72 h, analysis 3 d posttransplant.
Series [2] concerns the target T1, CXCR4. Briefly: Ca2+ mobilization. It is filed as cell-based. The conditions noted are these: Sup-T1 cells; for Ca2+ efflux (signaling) with increasing concentrations: Fura-2/AM ratiometric, plate reader, DV1 tested up to 40 µM.
The target in series [3] is T1, CXCR4. The experiment in a line: Single-cell [Ca2+]i. It is filed as cell-based. Conditions: SDV1a 10 µM; at least 11 cells per condition.
Series [4] relates to hNSCs. The experiment in a line: Boyden chamber transmigration assay, hNSCs. The class given is cell-based, human. The conditions noted are these: hNSCs 1x10^5, 8-µm fibronectin-coated transwell, 5 h.
Series [5] has as its system hNSCs. Briefly: CyQuant proliferation assay, hNSCs. The class given is cell-based, human. Conditions: SDV1a 10 nM, 72 h.
Another series has as its system ERK1/2, p38-MAPK, IκBα. Briefly: Western blot of phosphorylation downstream of CXCR4 in hNSCs. It is filed as cell-based, human. The conditions noted are these: hNSC lysates. In general terms: In western blotting, separated proteins are transferred to a membrane and probed.
The target in series [6] is T1, CXCR4. The experiment in a line: Receptor endocytosis analysis. The conditions noted are these: hNSCs, ligand 4 µg/mL, 37°C. The class given is cell-based.
Series [7] relates to hNSCs. Briefly: Microarray gene expression and gene ontology analysis of hNSCs. It is filed as cell-based, human. The conditions noted are these: hNSCs vs non-treated control.
Series [8] can be described thus: Persistence and pharmacokinetics in mouse brain. The class given is in vivo.
The test system of a further series is activated M1 microglia. The experiment in a line: Microgliosis and safety after intracerebral injection in adult mice. It is filed as in vivo, mouse. Conditions: for CD11b+ cells (activated M1 microglia): adult mouse brain after injection, n = 3 mice per condition.
The test system of series [9] is Sandhoff disease (Hexβ−/−) mice. Briefly: Sandhoff disease. It is filed as in vivo, mouse.
Another series has as its system transplanted hNSCs. It is filed as in vivo, mouse. Conditions: adult C57BL/6J mice, 2 µl injected into cortex or hippocampus, n=3 per group.
The next series deals with Sup-T1 cells. The experiment in a line: Boyden chamber chemotaxis assay, Sup-T1 cells. The class given is cell-based, human. The conditions noted are these: peptide in lower chamber at titrated concentrations, 37°C 2 h.
The mark [10] stands for this setting: 4-mo-old mice, hiPSC-hNSCs + SDV1a, n = 6.

T1 sequence (P61073 whole entry): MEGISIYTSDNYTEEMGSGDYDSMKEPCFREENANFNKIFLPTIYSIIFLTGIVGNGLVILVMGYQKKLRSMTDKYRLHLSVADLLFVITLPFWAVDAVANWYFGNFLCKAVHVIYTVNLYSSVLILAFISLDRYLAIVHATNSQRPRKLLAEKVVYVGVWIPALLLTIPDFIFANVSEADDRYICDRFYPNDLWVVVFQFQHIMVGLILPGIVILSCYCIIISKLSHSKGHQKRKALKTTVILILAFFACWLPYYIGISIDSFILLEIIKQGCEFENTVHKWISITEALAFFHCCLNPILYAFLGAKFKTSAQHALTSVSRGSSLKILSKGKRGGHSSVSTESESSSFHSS

On to `c1cc(CN2CCCNCCNCCCNCC2)ccc1CN1CCCNCCNCCCNCC1` [AMD3100], for which, on CXCR4 [1], the “Effect of CXCR4 inhibition on hNSC migration to SDV1a” value is given as “abrogated”.

Consider `CC(C)C[C@H](NC(=O)[C@H](CO)NC(=O)[C@@H](NC(=O)[C@@H]1CCCN1C(=O)[C@@H](N)CCCCN)C(C)C)C(=O)N[C@@H](CO)C(=O)N[C@@H](Cc1ccc(O)cc1)C(=O)N[C@@H](CCCNC(=N)N)C(=O)NCC(=O)NCC(=O)N[C@H](CC(C)C)C(=O)NCC(=O)N[C@H](C)C(=O)N[C@H](CO)C(=O)N[C@H](Cc1c[nH]c2ccccc12)C(=O)N[C@H](Cc1c[nH]cn1)C(=O)N[C@H](CCCNC(=N)N)C(=O)N1CCC[C@@H]1C(=O)N[C@H](CC(=O)O)C(=O)N[C@H](CCCCN)C(=O)N[C@H](CS)C(=O)N[C@H](CS)C(=O)N[C@H](CC(C)C)C(=O)NCC(=O)N[C@H](Cc1ccc(O)cc1)C(=O)N[C@H](CCC(N)=O)C(=O)N[C@H](CCCCN)C(=O)N[C@H](CCCNC(=N)N)C(=O)N1CCC[C@@H]1C(=O)N[C@H](CC(C)C)C(=O)N1CCC[C@@H]1C(N)=O` [SDV1a, L-(1∼8)-SDF1α-GG-D-(1∼21)-vMIP-II] (H-KPVSLSYRGG[dL]G[dA][dS][dW][dH][dR][dP][dD][dK][dC][dC][dL]G[dY][dQ][dK][dR][dP][dL][dP]-NH2; N-terminus assumed), for which the “Signaling intensity (Ca2+ release) relative to CXCL12/SDF1α” value on CXCR4 [2] (Fura-2/AM) was “an order-of-magnitude less”. Further, the “Change of [Ca2+]i in single hNSCs” value on CXCR4 [3] was “increased [Ca^2+]i”. In addition, in the series on hNSCs [4], the “Concentration at which hNSC chemotaxis peaks (bell-shaped dose-response)” value was found to be 5 nM. Further, the “Increase in total DNA content compared to untreated controls” value with hNSCs [5] was determined as 10%. In addition, the “Phosphorylation of p38-MAPK (Thr180/Tyr182) and IκBα (Ser-32/36)” value in the series on ERK1/2, p38-MAPK, IκBα is “phosphorylated”. Further, the “Time to down-regulation of CXCR4 surface expression” value at CXCR4 [6] is reported as 90 min. For the same molecule, in the series with hNSCs [7], the “Gene ontology profile induced in hNSCs” value is “primarily induced genes associated with developmental, homeostatic, and stem cell-related functions”. Moreover, the “Persistence in brain after injection” value in series [8] (FITC- or biotin-tagged SDV1a, adult mouse brain) worked out at 3 wk. Also, the “Time to dissemination throughout the regions” value in series [8] (postinjection, C57BL/6J mice, HPLC-MS/MS) is at most 30 min. The “CD11b+ cells (activated M1 microglia)” value in the series with activated M1 microglia is listed as 1.1 ± 1.0 per 0.4 mm^2. For the same molecule, the “Systemic or CNS toxicity, behavior” value in the series with activated M1 microglia (mice after intracerebral injection) was “no evidence of systemic or CNS toxicity or altered behavior”. Besides, in [9] (setting [10]), the “GM2 ganglioside storage in cortex” value was “little GM2 accumulation occurred” and the “Microgliosis (Iba1) in cortex where donor cells engrafted” value is on record as “scant”. In series [9] (hiPSC-hNSC+SDV1a, regions where donor cells were attracted), the “Hex enzyme levels in CNS parenchyma” value is given as “raised beyond the critical 3 to 5% therapeutic threshold”.

Take “C-X-C motif chemokine ligand-12 [CXCL12]”: at CXCR4 [2], the “Ca2+ efflux (signaling) with increasing concentrations” value was “produced the most intense signaling”. Further, the “Concentration at which hNSC chemotaxis peaks (bell-shaped dose-response)” value in the series on hNSCs [4] was 0.5 nM. For the same molecule, at CXCR4 [6], the “Time after which cell surface CXCR4 starts to rebound” value was above 45 min and the “Time to down-regulation of CXCR4 surface expression” value was at most 10 min. Besides, in the series on hNSCs [7], the “Gene ontology profile induced in hNSCs” value was “up-regulation of inflammatory and immune-related processes”. Further, in the series on transplanted hNSCs, the “Attraction of hNSCs transplanted into the contralateral hippocampus” value is “drew no hNSCs”. In [8] (similarly labeled recombinant CXCL12, adult mouse brain), the “Time by which undetectable in brain after administration” value was at most 2 days. For the same molecule, the “Persistence of microgliosis postinjection” value with activated M1 microglia (adult mouse brain) is recorded as 2 wk. Moreover, the “CD11b+ cells (activated M1 microglia)” value in the series on activated M1 microglia worked out at 11.7 ± 2.8 per 0.4 mm^2.

For the molecule D-(1~21)-vMIP-II [DV1], the “Ca2+ efflux (signaling) with increasing concentrations” value at CXCR4 [2] is on record as “evoked no signaling”. In addition, the “Chemotaxis of Sup-T1 cells (upper to lower chamber)” value in the series on Sup-T1 cells is “elicited no chemotaxis”.

For the molecule “L-(1~8)-SDF1a (KPVSLSYR; UniProt P48061 22-29, looked up, fragment) [S1]”, in the series with Sup-T1 cells, the “Chemotaxis of Sup-T1 cells (upper to lower chamber)” value is on record as “elicited no chemotaxis”.
